How the values were obtained:
Type in all cases: binding
[1] = test system: human monoclonal antibody CRJA
[2] = test system: human monoclonal antibody CRJB
[3] = test system: human monoclonal antibody CRJA; remark: listed apart in the source
[4] = test system: human monoclonal antibody CRJB; remark: listed apart in the source
[5] = test system: human monoclonal antibody CR57
[6] = test system: human monoclonal antibody CR57; remark: listed apart in the source

Sequence	Binding of CRJA to linear peptide (PEPSCAN-ELISA signal) [1]	Binding of CRJB (10 μg/ml) to looped/cyclic peptide (PEPSCAN-ELISA signal) [2]	Binding of CRJA (10 μg/ml) to looped/cyclic peptide (PEPSCAN-ELISA signal) [3]	Binding of CRJB to linear peptide (PEPSCAN-ELISA signal) [4]	Binding of CR57 to linear peptide (PEPSCAN-ELISA signal) [5]	Binding of CR57 (10 μg/ml) to looped/cyclic peptide (PEPSCAN-ELISA signal) [6]	Binding of CRJB (10 μg/ml) to looped/cyclic peptide (PEPSCAN-ELISA) [2]	Binding of CRJA (10 μg/ml) to looped/cyclic peptide (PEPSCAN-ELISA) [3]	Binding of CR57 (10 μg/ml) to looped/cyclic peptide (PEPSCAN-ELISA) [6]	also measured
EAENYTNFVGYVTTT	62	60	54	117	69	55				
YKSLKGACKLKLCGV	79			112	80		82	71	96	
TSNETKWCPPDQLVN	88			111	97		57	96	134	
TTKSVSFRRLSHLRK	94			118	66		72	97	92	
DPRYEESLHNPYPDY	92	65	91	110	57	76				
AYNWKMAGDPRYEES	90	77	72	94	96	96				
DEGCTNLSGFSYMEL	54	60	57	23	1	1				
KTLMEADAHYKSVRT	102			98	91		97	92	125	
TILDKLGPWSPIDIH	84	60	86	96	76	85				
LADPSTVFKDGDEAE										Binding of human monoclonal antibody CRJA to linear peptide (PEPSCAN-ELISA signal) [1]: 86; Binding of CRJB to looped/cyclic peptide (PEPSCAN-ELISA signal) [2]: 90; Binding of CRJA to looped/cyclic peptide (PEPSCAN-ELISA signal) [3]: 90; Binding of human monoclonal antibody CRJB to linear peptide (PEPSCAN-ELISA signal) [4]: 116; Binding of human monoclonal antibody CR57 to linear peptide (PEPSCAN-ELISA signal) [5]: 68; Binding of CR57 to looped/cyclic peptide (PEPSCAN-ELISA signal) [6]: 134
YDRSLHSRVFPSGKC	1027	72	86	818	364	112				binding of antibody CRJA to linear peptide (PEPSCAN OD) [1]: clearly bound; binding of antibody CRJB to linear peptide (PEPSCAN OD) [4]: clearly bound; binding of antibody CR57 to linear peptide (PEPSCAN OD) [5]: bound
GPWSPIDIHHLSCPN	72	78	97	114	68	78				
KLCGVLGLRLMDGTW	96			132	3152		68	82	120	binding of antibody CR57 to linear peptide (PEPSCAN OD) [5]: bound; strength of binding of CR57 (OD value compared with the other peptides / twice the average value) [5]: most prominent
LHSRVFPSGKCSGVA	134	111	117	114	78	110				
GCTNLSGFSYMELKV	72	55	55	114	55	63				
YEESLHNPYPDYRWL	87	50	84	106	58	98				
LAIKMNGFTCTGVVT	112	91	79	130	68	76				
DAHYKSVRTWNEILP	107			121	59		100	98	90	
HFRPTPDACRAAYNW	93	71	62	113	46	65				
ILDKLGPWSPIDIHH	56	46	71	104	54	80				
RCHPHVNGVFFNGII	108			141	98		100	106	104	
